In US9180193B2, “Antiviral compounds” (Hoffmann-La Roche Inc., priority 2011, dated 2015):
pEC50: −log10 of the molar value.

test system: not listed separately; assay: in vitro; type: cell-based; details: human
Protocol: Determination of Compounds Cytotoxicity Using the HCV GT1b Replicon Cell Line Measuring WST1.
2209-23 cells were plated at a cell density of 5000 cells per well in clear flat-bottom 96 well plate (Becton Dickinson, Cat #35 3075) for cell viability studies. The WST-1 cell proliferation assay (Roche Diagnostic, Cat#11644807001) was used to determine cell viability. Assay plates were set up in the same format as in the replicon assay. After 3 days of compound incubation 10 μl of WST-1 reagent was added to each well for 2 hours at 37° C. and 5% CO2, following manufacturer's instructions. Absorption reading at 450 nm (reference filter at 650 nm) was determined using MRX Revelation microtiter plate reader (Lab System). CC50 values were defined as the compound concentration required for reducing cell viability by 50% as compared to the untreated control in absence of compound and was determined by non-linear fitting of compound dose-response data. Representative assay data can be found in Table II below: […]

| SMILES | CC50 at 3 days [nM] |
| --- | --- |
| COC(=O)N[C@H]1CCC(=O)N2CCC[C@@H](c3ncc(-c4ccc(-c5cnc6cc(-c7cnc([C@@H]8CCCN8C(=O)[C@@H](NC(=O)OC)C(C)C)[nH]7)ccc6n5)cc4)[nH]3)N2C1=O [Compound I-4, ((4S,7S)-4-{5-[4-(6-{2-[(S)-1-((S)-2-Methoxycarbonylamino-3-methyl-butyryl)-pyrrolidin-2-yl]-3H-imidazol-4-yl}-quinoxalin-2-yl)-phenyl]-1H-imidazol-2-yl}-6,10-dioxo-octahydro-pyridazino[1,2-a][1,2]diazepin-7-yl)-carbamic acid methyl ester] | 8160 |

test system: GT-1a pRLuc H77 1b 75 SI subgenomic replicon cell line (Huh7); assay: HCV GT-1a replicon luciferase reporter assay; type: cell-based; details: Hepatitis C virus, GT1A, Huh-7; Renilla luciferase reporter read 72 hours after compound addition; GT-1a H77 replicon cells
From the text: Determination of compounds HCV GT1b inhibitory replicon activity using the replicon luciferase reporter assay
The 2209-23 cell line was developed at Roche by stable transfection of the hepatoma cell line Huh-7 with a GT-1b Con1 subgenomic bicistronic replicon as previously described. Subgenomic replicon cell line was established in cured Huh7 cells, obtained from R. Bartenschlager (J Virol. 2003 March; 77 (5):3007-19) The GT-1a H77 subgenomic replicon vector pRLuc H77 lb 75 SI, was created by replacing the non structural region of the GT-1b Con1 subgenomic replicon by the one of the H77 strain, except for the first 75 amino acids of the NS3 protein that are from GT-1b Con1 strain. (J Virol. 2001 77:5352-59) The GT-1a pRLuc H77 1b 75 SI subgenomic replicon cell line was established in cured Huh7 cells, obtained from R. Bartenschlager. (J Virol. 2003 March; 77 (5):3007-19)
All the subgenomic replicon cell lines were cultured in Dulbecco's Modified Eagle Medium (DMEM-Glutamax™-I; Invitrogen Cat #10569-010). The medium was supplemented with 10% Fetal Bovine Serum (Invitrogen Cat #10082-147), 1% penicillin/streptomycin (Mediatech Cat #30-002-CI) and 500 μg/ml of G418 (Mediatech Cat #30-234-CI). Cells were maintained at 37° C. in a humidified 5% CO2 atmosphere.
2209-23 cells were plated at a cell density of 5000 cells per well in 96 well plates (Becton Dickinson, Cat #35 3296). Cells were plated in 90 μl of Dulbecco's Modified Eagle Medium (DMEM-Glutamax™-I), (Invitrogen Cat #10569-010) medium was supplemented with 5% Fetal Bovine Serum (Invitrogen Cat #10082-147), 1% penicillin/streptomycin (Mediatech Cat #30-002-CI). The pRluc H77 1b 75 SI cells were plated in 96-well plate at 3000 cells/well in DMEM-Glutamax™-I containing 5% FBS and 1% penicillin/streptomycin in 90 μl final volume. Cells were allowed to equilibrate for 24 hours at 37° C. and 5% CO2 at which time compounds were added. Compounds (or medium as a control) were added 24 hours post-plating in 3 fold dilutions at a final DMSO concentration of 1% in 10 ul volume. Renilla luciferase reporter signal was read 72 hours after addition of compounds using the Renilla Luciferase Assay System (Promega, cat # E2820). EC50 values were defined as the compound concentration at which a 50% reduction in the levels of renilla luciferase reporter was observed as compared to control samples in the absence of compound and was determined by non-linear fitting of compound dose-response data. The EC50 was approximated if maximum percentage inhibition was less than 90% and more than 70%.

| SMILES | pEC50 |
| --- | --- |
| COC(=O)N[C@H]1CCC(=O)N2CCC[C@@H](c3ncc(-c4ccc(-c5ccc(-c6cnc([C@@H]7CCCN8C(=O)CC[C@H](NC(=O)OC)C(=O)N78)[nH]6)cc5)cc4)[nH]3)N2C1=O [Compound I-1, [(4S,7S)-4-(5-{4′-[2-((1S,9S)-9-[(Methoxycarbonyl)amino]-6,10-dioxo-octahydro-pyridazino[1,2-a][1,2]diazepin-1-yl)-3H-imidazol-4-yl]-biphenyl-4-yl}-1H-imidazol-2-yl)-6,10-dioxo-octahydro-pyridazino[1,2-a][1,2]diazepin-7-yl]-carbamic acid methyl ester] | 7.97 |
| COC(=O)N[C@H]1CCC(=O)N2CCC[C@@H](c3nc4cc(-c5ccc(-c6cnc([C@@H]7CCCN7C(=O)[C@@H](NC(=O)OC)C(C)C)[nH]6)cc5)ccc4[nH]3)N2C1=O [Compound I-2, {(4S,7S)-4-[5-(4-{2-[(S)-1-((S)-2-Methoxycarbonylamino-3-methyl-butyryl)-pyrrolidin-2-yl]-3H-imidazol-4-yl}-phenyl)-1H-benzoimidazol-2-yl]-6,10-dioxo-octahydro-pyridazino[1,2-a][1,2]diazepin-7-yl}-carbamic acid methyl ester] | 6.81 |
| COC(=O)N[C@H](C(=O)N1CCC[C@H]1c1ncc(-c2ccc(-c3ccc(-c4cnc([C@@H]5CCCN6C(=O)CC[C@H](NC(=O)OCc7ccccc7)C(=O)N56)[nH]4)cc3)cc2)[nH]1)C(C)C [Compound I-3, {(4S,7S)-4-[5-(4′-{2-[(S)-1-((S)-2-Methoxycarbonylamino-3-methyl-butyryl)-pyrrolidin-2-yl]-3H-imidazol-4-yl}-biphenyl-4-yl)-1H-imidazol-2-yl]-6,10-dioxo-octahydro-pyridazino[1,2-a][1,2]diazepin-7-yl}-carbamic acid benzyl ester] | 8.53 |
| COC(=O)N[C@H]1CCC(=O)N2CCC[C@@H](c3ncc(-c4ccc(-c5cnc6cc(-c7cnc([C@@H]8CCCN8C(=O)[C@@H](NC(=O)OC)C(C)C)[nH]7)ccc6n5)cc4)[nH]3)N2C1=O [Compound I-4, ((4S,7S)-4-{5-[4-(6-{2-[(S)-1-((S)-2-Methoxycarbonylamino-3-methyl-butyryl)-pyrrolidin-2-yl]-3H-imidazol-4-yl}-quinoxalin-2-yl)-phenyl]-1H-imidazol-2-yl}-6,10-dioxo-octahydro-pyridazino[1,2-a][1,2]diazepin-7-yl)-carbamic acid methyl ester] | 9.89 |
| COC(=O)N[C@H]1CCC(=O)N2CCC[C@@H](c3ncc(-c4ccc(-c5ccc(-c6cnc([C@@H]7CC(F)(F)CN7C(=O)[C@@H](NC(=O)OC)C(C)C)[nH]6)cc5)cc4)[nH]3)N2C1=O [Compound I-5, {(4S,7S)-4-[5-(4′-{2-[(S)-4,4-Difluoro-1-((S)-2-methoxycarbonylamino-3-methyl-butyryl)-pyrrolidin-2-yl]-3H-imidazol-4-yl}-biphenyl-4-yl)-1H-imidazol-2-yl]-6,10-dioxo-octahydro-pyridazino[1,2-a][1,2]diazepin-7-yl}-carbamic acid methyl ester] | 9.04 |
| COC(=O)N[C@H]1CCC(=O)N2CCC[C@@H](c3ncc(-c4ccc(-c5ccc(-c6cnc(C7CC8(CCOCC8)CN7C(=O)[C@@H](NC(=O)OC)C(C)C)[nH]6)cc5)cc4)[nH]3)N2C1=O (stereo partly drawn) [Compound I-6, {(4S,7S)-4-[5-(4′-{2-[2-((S)-2-Methoxycarbonylamino-3-methyl-butyryl)-8-oxa-2-aza-spiro[4.5]dec-3-yl]-3H-imidazol-4-yl}-biphenyl-4-yl)-1H-imidazol-2-yl]-6,10-dioxo-octahydro-pyridazino[1,2-a][1,2]diazepin-7-yl}-carbamic acid methyl ester] | 8.82 |
| COC(=O)N[C@H]1CCC(=O)N2CCC[C@@H](c3ncc(-c4ccc(-c5ccc(-c6cnc([C@@H]7CCCN7C(=O)[C@@H](NC(=O)OC)C(C)C)[nH]6)cc5)cc4)[nH]3)N2C1=O [Compound I-7, {(4S,7S)-4-[5-(4′-{2-[(S)-1-((S)-2-Methoxycarbonylamino-3-methyl-butyryl)-pyrrolidin-2-yl]-3H-imidazol-4-yl}-biphenyl-4-yl)-1H-imidazol-2-yl]-6,10-dioxo-octahydro-pyridazino[1,2-a][1,2]diazepin-7-yl}-carbamic acid methyl ester] | 8.96 |
